PubChem BioAssay (NCI)
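Cultured in 96-well plates, cells were exposed to test compound for 48 hours across five concentrations. GI50 marks 50% less growth. The concentration for full growth arrest is given as TGI.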

Key:
Assay in all cases: inhibition of tumour cell growth, NCI panel, 48 h
DU-145 prostate = test system: DU-145 prostate
EKVX NSCLC = test system: EKVX NSCLC
SK-MEL-2 melanoma = test system: SK-MEL-2 melanoma
MALME-3M melanoma = test system: MALME-3M melanoma
RXF 393 renal = test system: RXF 393 renal
BT-549 breast = test system: BT-549 breast
HOP-92 NSCLC = test system: HOP-92 NSCLC
ACHN renal = test system: ACHN renal
HS 578T breast = test system: HS 578T breast
MCF7 breast = test system: MCF7 breast
UO-31 renal = test system: UO-31 renal
NCI-H460 lung = test system: NCI-H460 lung
NCI-H226 lung = test system: NCI-H226 lung
SR leukemia = test system: SR leukemia
COLO 205 colon = test system: COLO 205 colon
MDA-MB-435 = test system: MDA-MB-435
SN12C renal = test system: SN12C renal
A549 NSCLC = test system: A549 NSCLC
A498 renal = test system: A498 renal
UACC-257 melanoma = test system: UACC-257 melanoma
SNB-19 CNS = test system: SNB-19 CNS
SF-268 CNS = test system: SF-268 CNS
OVCAR-5 ovarian = test system: OVCAR-5 ovarian
HT29 colon = test system: HT29 colon
HCT-15 colon = test system: HCT-15 colon
HL-60(TB) leukemia = test system: HL-60(TB) leukemia
HCT-116 colon = test system: HCT-116 colon
KM12 colon = test system: KM12 colon
SF-539 CNS = test system: SF-539 CNS
UACC-62 melanoma = test system: UACC-62 melanoma
TK-10 renal = test system: TK-10 renal
SNB-75 CNS = test system: SNB-75 CNS
MOLT-4 leukemia = test system: MOLT-4 leukemia
CCRF-CEM leukemia = test system: CCRF-CEM leukemia
OVCAR-3 ovarian = test system: OVCAR-3 ovarian
HOP-62 NSCLC = test system: HOP-62 NSCLC
T-47D breast = test system: T-47D breast
HCC-2998 colon = test system: HCC-2998 colon
MDA-MB-231 breast = test system: MDA-MB-231 breast
NCI-H23 lung = test system: NCI-H23 lung
M14 melanoma = test system: M14 melanoma
U251 CNS = test system: U251 CNS
786-0 renal = test system: 786-0 renal
NCI-H522 lung = test system: NCI-H522 lung
LOX IMVI melanoma = test system: LOX IMVI melanoma
PC-3 prostate = test system: PC-3 prostate
RPMI-8226 leukemia = test system: RPMI-8226 leukemia
SK-MEL-28 melanoma = test system: SK-MEL-28 melanoma
OVCAR-4 ovarian = test system: OVCAR-4 ovarian
SW-620 colon = test system: SW-620 colon
SF-295 CNS = test system: SF-295 CNS
SK-OV-3 ovarian = test system: SK-OV-3 ovarian
SK-MEL-5 melanoma = test system: SK-MEL-5 melanoma
IGROV1 ovarian = test system: IGROV1 ovarian
K-562 leukemia = test system: K-562 leukemia
OVCAR-8 ovarian = test system: OVCAR-8 ovarian
CAKI-1 renal = test system: CAKI-1 renal
NCI/ADR-RES ovarian = test system: NCI/ADR-RES ovarian

CC(=O)c1cc2c(N)c(C(=O)Nc3cccc4ccccc34)sc2nc1C
GI50 (DU-145 prostate): 1.71 µM
TGI (DU-145 prostate): 36.1 µM
GI50 (EKVX NSCLC): 2.9 µM
TGI (EKVX NSCLC): > 50 µM
GI50 (SK-MEL-2 melanoma): 4.22 µM
TGI (SK-MEL-2 melanoma): > 50 µM
GI50 (MALME-3M melanoma): 6.92 µM
TGI (MALME-3M melanoma): > 50 µM
GI50 (RXF 393 renal): 0.891 µM
TGI (RXF 393 renal): 3.46 µM
GI50 (BT-549 breast): 4.03 µM
TGI (BT-549 breast): > 50 µM
GI50 (HOP-92 NSCLC): 6.78 µM
TGI (HOP-92 NSCLC): > 50 µM
GI50 (ACHN renal): 3.61 µM
TGI (ACHN renal): > 50 µM
GI50 (HS 578T breast): 1.82 µM
TGI (HS 578T breast): > 50 µM
GI50 (MCF7 breast): 1.42 µM
TGI (MCF7 breast): > 50 µM
GI50 (UO-31 renal): 4.27 µM
TGI (UO-31 renal): > 50 µM
GI50 (NCI-H460 lung): 1.61 µM
TGI (NCI-H460 lung): > 50 µM
GI50 (NCI-H226 lung): 21.6 µM
TGI (NCI-H226 lung): > 50 µM
GI50 (SR leukemia): 1.21 µM
TGI (SR leukemia): > 50 µM
GI50 (COLO 205 colon): 1.12 µM
TGI (COLO 205 colon): 3.2 µM
GI50 (MDA-MB-435): 0.178 µM
TGI (MDA-MB-435): 1.08 µM
GI50 (SN12C renal): 3.44 µM
TGI (SN12C renal): > 50 µM
GI50 (A549 NSCLC): 0.977 µM
TGI (A549 NSCLC): > 50 µM
GI50 (A498 renal): 0.34 µM
TGI (A498 renal): > 50 µM
GI50 (UACC-257 melanoma): 18 µM
TGI (UACC-257 melanoma): > 50 µM
GI50 (SNB-19 CNS): 1.78 µM
TGI (SNB-19 CNS): > 50 µM
GI50 (SF-268 CNS): 4.34 µM
TGI (SF-268 CNS): > 50 µM
GI50 (OVCAR-5 ovarian): 2.6 µM
TGI (OVCAR-5 ovarian): > 50 µM
GI50 (HT29 colon): 1.74 µM
TGI (HT29 colon): > 50 µM
GI50 (HCT-15 colon): 1.71 µM
TGI (HCT-15 colon): > 50 µM
GI50 (HL-60(TB) leukemia): 1.36 µM
TGI (HL-60(TB) leukemia): 4.35 µM
GI50 (HCT-116 colon): 2.23 µM
TGI (HCT-116 colon): > 50 µM
GI50 (KM12 colon): 1.89 µM
TGI (KM12 colon): > 50 µM
GI50 (SF-539 CNS): 1.16 µM
TGI (SF-539 CNS): 3.99 µM
GI50 (UACC-62 melanoma): 1.12 µM
TGI (UACC-62 melanoma): > 50 µM
GI50 (TK-10 renal): 3.77 µM
TGI (TK-10 renal): > 50 µM
GI50 (SNB-75 CNS): 1.98 µM
TGI (SNB-75 CNS): 35.5 µM
GI50 (MOLT-4 leukemia): 2.19 µM
TGI (MOLT-4 leukemia): > 50 µM
GI50 (CCRF-CEM leukemia): 2.02 µM
TGI (CCRF-CEM leukemia): > 50 µM
GI50 (OVCAR-3 ovarian): 1.67 µM
TGI (OVCAR-3 ovarian): 11.4 µM
GI50 (HOP-62 NSCLC): 1.67 µM
TGI (HOP-62 NSCLC): 27.4 µM
GI50 (T-47D breast): 1.6 µM
TGI (T-47D breast): > 50 µM
GI50 (HCC-2998 colon): 2.29 µM
TGI (HCC-2998 colon): > 50 µM
GI50 (MDA-MB-231 breast): 3.41 µM
TGI (MDA-MB-231 breast): > 50 µM
GI50 (NCI-H23 lung): 2.14 µM
TGI (NCI-H23 lung): > 50 µM
GI50 (M14 melanoma): 0.745 µM
TGI (M14 melanoma): 3.21 µM
GI50 (U251 CNS): 1.92 µM
TGI (U251 CNS): > 50 µM
GI50 (786-0 renal): 1.87 µM
TGI (786-0 renal): > 50 µM
GI50 (NCI-H522 lung): 1.2 µM
TGI (NCI-H522 lung): > 50 µM
GI50 (LOX IMVI melanoma): 2.58 µM
TGI (LOX IMVI melanoma): > 50 µM
GI50 (PC-3 prostate): 1.75 µM
TGI (PC-3 prostate): > 50 µM
GI50 (RPMI-8226 leukemia): 1.76 µM
TGI (RPMI-8226 leukemia): > 50 µM
GI50 (SK-MEL-28 melanoma): 4.07 µM
TGI (SK-MEL-28 melanoma): > 50 µM
GI50 (OVCAR-4 ovarian): 6.06 µM
TGI (OVCAR-4 ovarian): > 50 µM
GI50 (SW-620 colon): 1.55 µM
TGI (SW-620 colon): > 50 µM
GI50 (SF-295 CNS): 0.922 µM
TGI (SF-295 CNS): 3.59 µM
GI50 (SK-OV-3 ovarian): 0.512 µM
TGI (SK-OV-3 ovarian): > 50 µM
GI50 (SK-MEL-5 melanoma): 1.09 µM
TGI (SK-MEL-5 melanoma): > 50 µM
GI50 (IGROV1 ovarian): 2.92 µM
TGI (IGROV1 ovarian): > 50 µM
GI50 (K-562 leukemia): 1.23 µM
TGI (K-562 leukemia): > 50 µM
GI50 (OVCAR-8 ovarian): 2.14 µM
TGI (OVCAR-8 ovarian): > 50 µM

C=C1OC2OC(C)C(NC(=O)OCC(Cl)(Cl)Cl)C(OC(C)=O)C2O1 (stereo not drawn)
TGI (DU-145 prostate): > 100 µM
TGI (EKVX NSCLC): > 100 µM
TGI (MALME-3M melanoma): > 100 µM
TGI (RXF 393 renal): > 100 µM
TGI (BT-549 breast): > 100 µM
TGI (HOP-92 NSCLC): > 100 µM
TGI (ACHN renal): > 100 µM
TGI (HS 578T breast): > 100 µM
TGI (MCF7 breast): > 100 µM
TGI (UO-31 renal): > 100 µM
TGI (NCI-H460 lung): > 100 µM
TGI (NCI-H226 lung): > 100 µM
TGI (SR leukemia): > 100 µM
TGI (COLO 205 colon): > 100 µM
TGI (MDA-MB-435): > 100 µM
TGI (SN12C renal): > 100 µM
TGI (A549 NSCLC): > 100 µM
TGI (A498 renal): > 100 µM
TGI (UACC-257 melanoma): > 100 µM
TGI (SNB-19 CNS): > 100 µM
TGI (SF-268 CNS): > 100 µM
TGI (OVCAR-5 ovarian): > 100 µM
TGI (HT29 colon): > 100 µM
TGI (HCT-15 colon): > 100 µM
TGI (HL-60(TB) leukemia): > 100 µM
TGI (HCT-116 colon): > 100 µM
TGI (KM12 colon): > 100 µM
TGI (SF-539 CNS): > 100 µM
TGI (UACC-62 melanoma): > 100 µM
TGI (TK-10 renal): > 100 µM
TGI (MOLT-4 leukemia): > 100 µM
TGI (CCRF-CEM leukemia): > 100 µM
TGI (OVCAR-3 ovarian): > 100 µM
TGI (HOP-62 NSCLC): > 100 µM
TGI (T-47D breast): > 100 µM
TGI (HCC-2998 colon): > 100 µM
TGI (MDA-MB-231 breast): > 100 µM
TGI (NCI-H23 lung): > 100 µM
TGI (M14 melanoma): > 100 µM
TGI (CAKI-1 renal): > 100 µM
TGI (U251 CNS): > 100 µM
TGI (786-0 renal): > 100 µM
TGI (NCI-H522 lung): > 100 µM
TGI (LOX IMVI melanoma): > 100 µM
TGI (NCI/ADR-RES ovarian): > 100 µM
TGI (PC-3 prostate): > 100 µM
TGI (RPMI-8226 leukemia): > 100 µM
TGI (SK-MEL-28 melanoma): > 100 µM
TGI (OVCAR-4 ovarian): > 100 µM
TGI (SW-620 colon): > 100 µM
TGI (SF-295 CNS): > 100 µM
TGI (SK-OV-3 ovarian): > 100 µM
TGI (SK-MEL-5 melanoma): > 100 µM
TGI (IGROV1 ovarian): > 100 µM
TGI (K-562 leukemia): > 100 µM
TGI (OVCAR-8 ovarian): > 100 µM
